Values joined by “and” are separate entries in the source; they are usually repeats but may differ in a detail not shown here. Equal values may be shown once. Inconclusive results and toxic doses are left out.
Tested on: CD2F1 mice, L1210 leukemia ip, survival T/C
Assay: NCI In Vivo Anticancer Drug Screen. Data for tumor model L1210 Leukemia (intraperitoneal) in CD2F1 (CDF1) mice
Settings: higher = longer survival
Procedure, shortened: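 Tumor-bearing mice (transplanted tumor) were split into treated and vehicle control groups, and the measured endpoint of each treated group was divided by that of its vehicle controls.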

## COc1cc(NS(C)(=O)=O)ccc1Nc1c2ccccc2nc2ccccc12
endpoint: mean survival time, dose: 1.0 mg/kg/injection, schedule: Q01DX009 (ip), vehicle: saline
  T/C: 110 % of control
endpoint: mean survival time, dose: 1.0 mg/kg/injection, schedule: Q01DX009 (sc), vehicle: saline
  T/C: 101 % of control
endpoint: mean survival time, dose: 1.8 mg/kg/injection, schedule: Q01DX009 (ip), vehicle: other
  T/C: 185 % of control
endpoint: mean survival time, dose: 2.0 mg/kg/injection, schedule: Q01DX009 (sc), vehicle: saline
  T/C: 104 % of control
endpoint: mean survival time, dose: 2.0 mg/kg/injection, schedule: Q03HX008 (ip), vehicle: saline
  T/C: 150 % of control
endpoint: mean survival time, dose: 2.0 mg/kg/injection, schedule: Q03HX024 (ip), vehicle: saline
  T/C: 151 % of control
endpoint: mean survival time, dose: 3.75 mg/kg/injection, schedule: Q01DX009 (ip), vehicle: other
  T/C: 173 % of control and 174 % of control
endpoint: mean survival time, dose: 3.75 mg/kg/injection, schedule: Q04DX003 (ip), vehicle: other
  T/C: 98 % of control
endpoint: mean survival time, dose: 4.0 mg/kg/injection, schedule: Q01DX009 (ip), vehicle: saline
  T/C: 155 % of control and 218 % of control and 161 % of control
endpoint: mean survival time, dose: 4.0 mg/kg/injection, schedule: Q01DX009 (oral), vehicle: saline
  T/C: 102 % of control
endpoint: mean survival time, dose: 4.0 mg/kg/injection, schedule: Q01DX009 (sc), vehicle: saline
  T/C: 113 % of control
endpoint: mean survival time, dose: 4.0 mg/kg/injection, schedule: Q03HX008 (ip), vehicle: saline
  T/C: 164 % of control
endpoint: mean survival time, dose: 4.0 mg/kg/injection, schedule: Q03HX016 (ip), vehicle: saline
  T/C: 346 % of control
endpoint: mean survival time, dose: 4.0 mg/kg/injection, schedule: Q03HX024 (ip), vehicle: saline
  T/C: 122 % of control
endpoint: mean survival time, dose: 7.5 mg/kg/injection, schedule: Q01DX009 (ip), vehicle: other
  T/C: 91 % of control and 93 % of control
endpoint: mean survival time, dose: 7.5 mg/kg/injection, schedule: Q04DX003 (ip), vehicle: other
  T/C: 150 % of control
endpoint: mean survival time, dose: 8.0 mg/kg/injection, schedule: Q01DX009 (oral), vehicle: saline
  T/C: 113 % of control
endpoint: mean survival time, dose: 8.0 mg/kg/injection, schedule: Q03HX008 (ip), vehicle: saline
  T/C: 86 % of control
endpoint: mean survival time, dose: 8.0 mg/kg/injection, schedule: Q03HX016 (ip), vehicle: saline
  T/C: 93 % of control
endpoint: mean survival time, dose: 15.0 mg/kg/injection, schedule: Q01DX001 (ip), vehicle: other
  T/C: 154 % of control
endpoint: mean survival time, dose: 15.0 mg/kg/injection, schedule: Q04DX003 (ip), vehicle: other
  T/C: 124 % of control and 221 % of control
endpoint: mean survival time, dose: 16.0 mg/kg/injection, schedule: Q01DX001 (sc), vehicle: saline
  T/C: 112 % of control
endpoint: mean survival time, dose: 16.0 mg/kg/injection, schedule: Q01DX009 (oral), vehicle: saline
  T/C: 102 % of control
endpoint: mean survival time, dose: 16.0 mg/kg/injection, schedule: Q01DX009 (sc), vehicle: saline
  T/C: 101 % of control
endpoint: mean survival time, dose: 16.0 mg/kg/injection, schedule: Q04DX003 (ip), vehicle: saline
  T/C: 150 % of control
endpoint: mean survival time, dose: 32.0 mg/kg/injection, schedule: Q01DX001 (sc), vehicle: saline
  T/C: 117 % of control
endpoint: mean survival time, dose: 32.0 mg/kg/injection, schedule: Q01DX009 (oral), vehicle: saline
  T/C: 93 % of control
endpoint: mean survival time, dose: 32.0 mg/kg/injection, schedule: Q04DX003 (ip), vehicle: saline
  T/C: 153 % of control
endpoint: mean survival time, dose: 64.0 mg/kg/injection, schedule: Q01DX001 (oral), vehicle: saline
  T/C: 109 % of control
endpoint: mean survival time, dose: 64.0 mg/kg/injection, schedule: Q01DX001 (sc), vehicle: saline
  T/C: 119 % of control
endpoint: mean survival time, dose: 64.0 mg/kg/injection, schedule: Q08DX002 (ip), vehicle: saline
  T/C: 154 % of control
endpoint: mean survival time, dose: 128.0 mg/kg/injection, schedule: Q01DX001 (ip), vehicle: saline
  T/C: 92 % of control
endpoint: mean survival time, dose: 128.0 mg/kg/injection, schedule: Q01DX001 (oral), vehicle: saline
  T/C: 114 % of control
endpoint: mean survival time, dose: 128.0 mg/kg/injection, schedule: Q01DX001 (sc), vehicle: saline
  T/C: 117 % of control
endpoint: mean survival time, dose: 256.0 mg/kg/injection, schedule: Q01DX001 (oral), vehicle: saline
  T/C: 104 % of control
endpoint: mean survival time, dose: 256.0 mg/kg/injection, schedule: Q01DX001 (sc), vehicle: saline
  T/C: 118 % of control
endpoint: mean survival time, dose: 512.0 mg/kg/injection, schedule: Q01DX001 (oral), vehicle: saline
  T/C: 112 % of control
endpoint: median survival time, dose: 0.25 mg/kg/injection, schedule: Q01DX009 (sc), vehicle: other
  T/C: 112 % of control
endpoint: median survival time, dose: 0.25 mg/kg/injection, schedule: Q03HX016 (ip), vehicle: other
  T/C: 118 % of control
endpoint: median survival time, dose: 0.5 mg/kg/injection, schedule: Q01DX009 (sc), vehicle: other
  T/C: 112 % of control
endpoint: median survival time, dose: 1.0 mg/kg/injection, schedule: Q01DX009 (ip), vehicle: saline with Tween-80
  T/C: 165 % of control
endpoint: median survival time, dose: 1.0 mg/kg/injection, schedule: Q01DX009 (oral), vehicle: other
  T/C: 100 % of control
endpoint: median survival time, dose: 1.0 mg/kg/injection, schedule: Q01DX009 (sc), vehicle: other
  T/C: 112 % of control
endpoint: median survival time, dose: 1.0 mg/kg/injection, schedule: Q03HX008 (ip), vehicle: other
  T/C: 162 % of control
endpoint: median survival time, dose: 1.0 mg/kg/injection, schedule: Q03HX016 (ip), vehicle: other
  T/C: 150 % of control
endpoint: median survival time, dose: 1.0 mg/kg/injection, schedule: Q03HX024 (ip), vehicle: other
  T/C: 175 % of control
endpoint: median survival time, dose: 2.0 mg/kg/injection, schedule: Q01DX001 (ip), vehicle: other
  T/C: 118 % of control
endpoint: median survival time, dose: 2.0 mg/kg/injection, schedule: Q01DX001 (sc), vehicle: other
  T/C: 112 % of control
endpoint: median survival time, dose: 2.0 mg/kg/injection, schedule: Q01DX009 (ip), vehicle: other
  T/C: 150 % of control and 161 % of control
endpoint: median survival time, dose: 2.0 mg/kg/injection, schedule: Q01DX009 (oral), vehicle: other
  T/C: 100 % of control
endpoint: median survival time, dose: 2.0 mg/kg/injection, schedule: Q03HX008 (ip), vehicle: other
  T/C: 181 % of control
endpoint: median survival time, dose: 2.0 mg/kg/injection, schedule: Q03HX016 (ip), vehicle: other
  T/C: 181 % of control
endpoint: median survival time, dose: 2.0 mg/kg/injection, schedule: Q04DX003 (ip), vehicle: other
  T/C: 120 % of control
endpoint: median survival time, dose: 2.59 mg/kg/injection, schedule: Q04DX003 (ip), vehicle: other
  T/C: 124 % of control
endpoint: median survival time, dose: 4.0 mg/kg/injection, schedule: Q01DX001 (sc), vehicle: other
  T/C: 112 % of control
endpoint: median survival time, dose: 4.0 mg/kg/injection, schedule: Q01DX009 (ip), vehicle: other
  T/C: 193 % of control and 200 % of control
endpoint: median survival time, dose: 4.0 mg/kg/injection, schedule: Q01DX009 (ip), vehicle: saline with Tween-80
  T/C: 151 % of control (2×) and 163 % of control
endpoint: median survival time, dose: 4.0 mg/kg/injection, schedule: Q01DX009 (oral), vehicle: other
  T/C: 112 % of control
endpoint: median survival time, dose: 4.0 mg/kg/injection, schedule: Q01DX009 (sc), vehicle: other
  T/C: 150 % of control
endpoint: median survival time, dose: 8.0 mg/kg/injection, schedule: Q01DX001 (oral), vehicle: other
  T/C: 112 % of control
endpoint: median survival time, dose: 8.0 mg/kg/injection, schedule: Q01DX001 (sc), vehicle: other
  T/C: 112 % of control
endpoint: median survival time, dose: 8.0 mg/kg/injection, schedule: Q01DX009 (ip), vehicle: other
  T/C: 87 % of control and 88 % of control
endpoint: median survival time, dose: 8.0 mg/kg/injection, schedule: Q01DX009 (oral), vehicle: other
  T/C: 150 % of control
endpoint: median survival time, dose: 8.0 mg/kg/injection, schedule: Q01DX009 (sc), vehicle: other
  T/C: 112 % of control
endpoint: median survival time, dose: 8.0 mg/kg/injection, schedule: Q04DX003 (ip), vehicle: other
  T/C: 181 % of control
endpoint: median survival time, dose: 8.0 mg/kg/injection, schedule: Q08DX002 (ip), vehicle: other
  T/C: 156 % of control
endpoint: median survival time, dose: 12.0 mg/kg/injection, schedule: Q04DX003 (ip), vehicle: other
  T/C: 186 % of control
endpoint: median survival time, dose: 16.0 mg/kg/injection, schedule: Q01DX009 (ip), vehicle: other
  T/C: 90 % of control
endpoint: median survival time, dose: 16.0 mg/kg/injection, schedule: Q01DX009 (oral), vehicle: other
  T/C: 87 % of control
endpoint: median survival time, dose: 16.0 mg/kg/injection, schedule: Q01DX009 (sc), vehicle: other
  T/C: 87 % of control
endpoint: median survival time, dose: 16.0 mg/kg/injection, schedule: Q04DX003 (ip), vehicle: other
  T/C: 150 % of control and 175 % of control
endpoint: median survival time, dose: 16.0 mg/kg/injection, schedule: Q08DX002 (ip), vehicle: other
  T/C: 175 % of control
endpoint: median survival time, dose: 20.0 mg/kg/injection, schedule: Q04DX003 (ip), vehicle: other
  T/C: 98 % of control
endpoint: median survival time, dose: 32.0 mg/kg/injection, schedule: Q04DX003 (ip), vehicle: other
  T/C: 106 % of control
endpoint: median survival time, dose: 64.0 mg/kg/injection, schedule: Q01DX001 (oral), vehicle: other
  T/C: 150 % of control
endpoint: median survival time, dose: 64.0 mg/kg/injection, schedule: Q01DX001 (sc), vehicle: other
  T/C: 156 % of control
endpoint: median survival time, dose: 128.0 mg/kg/injection, schedule: Q01DX001 (sc), vehicle: other
  T/C: 118 % of control

— PubChem BioAssay AID256 (DTP/NCI, 2004)
